In patent US20040082623A1, “Fmoc-l-leucine and derivatives thereof as ppar-gamma agonists” (priority 2003, published 2004):

Assays:
[1] = biological target: PPARγ DE/p300Nt-GST (Homo sapiens, UniProt P37231)
Excerpt: The beads were then washed and the samples separated on SDS-PAGE and blotted. The blot was developed with anti-histidine antibodies.
The p300Nt-GST, fusion protein was generated by cloning the N-terminal part of the p300 protein (a.a. 2 to 516) downstream of the glutathione-S-transferase (GST) protein in the pGex-T1 vector (Pharmacia, Orsay, France). The fusion proteins were then expressed in Escherichia coli and purified on a glutathione affinity matrix (Pharmacia). Human PPARγ (aa. 203 to 477 of PPARγ) was subcloned into the pET15b (Novagen, Madison, Wis.) expression vector. The his-tagPPARγ2DE203-477 proteins were produced as follow. The protein was purified using a metal chelate affinity column with an affinity column Co^2+ coupled agarose (High Trap chelatin, Pharmacia). The protein was eluted with 20 mM Tris-HCl, 500 M NaCl, 130 mM imidazole and 1-2 propanediol 2.5% (pH 8.5). A second purification step was made by gel filtration (Superdex 200 16/60, Pharmacia). The protein was eluted with 20 mM Tris-HCl, 100 mM NaCl, 5 mM DTT and 1-2 propanediol 2,5% (pH 8.5).

[2] = biological target: T1, PPARγ2 (Homo sapiens, UniProt P37231); assay: Transient transfection, PPARγ2 reporter in RK13 cells; assay type: cell-based; set-up: a construct containing the entire cDNA of the human PPARγ2 (hPPARγ2); expressed in transfected cells; host or cells: Hep G2, RK13 or CV1 cells
T1 sequence (P37231 1-505): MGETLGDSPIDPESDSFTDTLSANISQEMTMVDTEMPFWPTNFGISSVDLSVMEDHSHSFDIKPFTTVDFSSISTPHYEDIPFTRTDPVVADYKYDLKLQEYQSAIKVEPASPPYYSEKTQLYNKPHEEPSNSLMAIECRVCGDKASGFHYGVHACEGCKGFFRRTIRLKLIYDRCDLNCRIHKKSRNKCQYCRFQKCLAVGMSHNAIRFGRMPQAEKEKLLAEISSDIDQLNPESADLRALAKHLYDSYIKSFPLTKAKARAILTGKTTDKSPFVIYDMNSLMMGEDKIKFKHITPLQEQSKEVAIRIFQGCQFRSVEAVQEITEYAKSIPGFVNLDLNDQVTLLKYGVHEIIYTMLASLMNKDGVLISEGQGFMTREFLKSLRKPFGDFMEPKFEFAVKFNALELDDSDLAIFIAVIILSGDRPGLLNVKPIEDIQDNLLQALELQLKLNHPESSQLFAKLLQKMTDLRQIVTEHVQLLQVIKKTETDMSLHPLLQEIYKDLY
Method: RK13 cells (A and D), CV1 cells (B) or Hep G2 cells (C) were co-transfected with an expression vector for PPARγ2 (0.1 μg/well), pGL3-(Jwt)3TKLuc reported construct (0.5 μg/well), and pCMV-βGal (0.5 μg/well), as a control of transfection efficiency (0.5 μg/well). They were then grown during 24 h in the presence or absence of indicated compound. Activation is expressed as relative luciferase activity/β ? galactosidase activity. Each point was performed in triplicate, and each figure i ? representative of four independent experiments.
The CV1, RK-13, and Hep G2 cell lines were obtained from ATCC (Rockville, Md.). Cells were maintained in Dulbecco's modified Eagle's minimal essential medium (DMEM) supplemented with 10% fetal calf serum (FCS), L-glutamine, and antibiotics. Transfections with chloramphenicol acetyltransferase (CAT) or luciferase (luc.) reporter constructs were carried out exactly as described previously (Schoonjans et al., 1996). The pGL3-(Jwt)3TKLuc and the pGL3-(Jwt)3TKCAT reporter constructs contain both three tandem repeats of the J site of the apolipoprotein A-II promoter cloned upstream of the herpes simplex virus thymidine kinase (TK) promoter and the luciferase or the CAT reporter genes respectively (Vu-Dac et al., 1995). The following expression vectors were used; pSG5-hPPARγ2, a construct containing the entire cDNA of the human PPARγ2 (hPPARγ2) (Fajas et al., 1997); pSG5-mPPARα (Isseman et al., 1993); and pCMV-βGal, as a control of transfection efficiency.

PPARγ DE/p300Nt-GST, sequence (Q09472 2-516 partner limits assumed, one chain of several): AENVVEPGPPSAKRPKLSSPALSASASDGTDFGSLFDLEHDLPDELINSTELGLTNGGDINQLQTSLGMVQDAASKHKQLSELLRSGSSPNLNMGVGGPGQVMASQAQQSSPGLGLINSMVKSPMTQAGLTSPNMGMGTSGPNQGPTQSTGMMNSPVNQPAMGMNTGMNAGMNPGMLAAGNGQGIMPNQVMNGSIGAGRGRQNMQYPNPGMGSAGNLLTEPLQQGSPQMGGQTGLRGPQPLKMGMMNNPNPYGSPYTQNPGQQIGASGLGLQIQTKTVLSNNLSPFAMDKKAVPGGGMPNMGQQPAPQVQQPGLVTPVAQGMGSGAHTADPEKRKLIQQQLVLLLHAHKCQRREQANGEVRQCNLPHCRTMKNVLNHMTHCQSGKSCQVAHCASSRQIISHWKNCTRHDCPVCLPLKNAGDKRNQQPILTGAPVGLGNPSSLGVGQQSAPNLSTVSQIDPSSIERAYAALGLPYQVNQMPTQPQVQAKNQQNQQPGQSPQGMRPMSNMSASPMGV

## CC(C)CC(NC(=O)OCC1c2ccccc2-c2ccccc21)C(=O)O [F-L-Leu, N-(9-fluroroenylmethyloxycarbonyl)-L-Leucine]
[1]; p300 pull-down
  potency relative to rosiglitazone (fold lower): 2- to 3 fold
[1]; vs DMSO, rosiglitazone 10^−4 M, F-L-Leu 10^−3 M
  formation of PPARγ DE/p300Nt-GST complexes: effectively induced
[2]; RK13 cells
  concentration giving maximal PPARγ activation: 10^−5 M
[2]; RK13 cells, 10^−5 M added
  modification of PPARγ activity when added to a saturating concentration of rosiglitazone: No significant modification
[2]; rabbit kidney RK13 cells
  concentration of optimal PPARγ activity / activation: 10^−5 M
